Test [1] concerns the target T1, BTB/POZ domain-containing protein KCTD11 (Homo sapiens, UniProt Q693B1).
T1 sequence (Q693B1 whole entry): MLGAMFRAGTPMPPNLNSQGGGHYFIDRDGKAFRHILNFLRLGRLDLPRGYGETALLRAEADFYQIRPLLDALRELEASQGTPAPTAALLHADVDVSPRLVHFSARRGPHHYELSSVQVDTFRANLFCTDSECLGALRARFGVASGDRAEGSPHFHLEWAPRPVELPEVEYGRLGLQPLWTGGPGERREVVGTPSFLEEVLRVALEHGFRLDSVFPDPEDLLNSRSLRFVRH
Kind of test: Binding affinity to recombinant N-terminal poly His-Trx tagged KCTD11 (15 to 115 residues) (unknown origin) expressed in Escherichia coli assessed as inhibition of KCTD11/cullin3a protein-protein interaction by fluorescence polarization assay. For orientation: Polarisation of emitted light reports the rotation of a fluorescent probe.

Test [2] in a line: Binding affinity to IPTG-induced […] human TEV cleavage site-fused- GST-tagged beta-catenin (134 to 665 residues) assessed as inhibition of beta-catenin/axin protein-protein interaction after 45 mins by fluorescence polarization assay.
The nature of test [3]: Binding affinity to Plasmodium falciparum N-terminal His6-tagged MTIP expressed in Escherichia coli BL21 (DE3) assessed as inhibition of MTIP/MyoA protein-protein interaction at 303 K by isothermal titration calorimetry. In general terms: ITC needs no label: the signal is the heat of the interaction.
Test [4] deals with T2, E3 ubiquitin-protein ligase Mdm2 (Homo sapiens, UniProt Q00987). Briefly: Binding affinity to N-terminal 6xHis-tagged MDM2 (unknown origin) (1 to 126 residues) assessed as inhibition of MDM2/p53 protein-protein interaction by fluorescence anisotrophy assay.
Target sequence in this assay (Q00987 whole entry, the tested form may be a part): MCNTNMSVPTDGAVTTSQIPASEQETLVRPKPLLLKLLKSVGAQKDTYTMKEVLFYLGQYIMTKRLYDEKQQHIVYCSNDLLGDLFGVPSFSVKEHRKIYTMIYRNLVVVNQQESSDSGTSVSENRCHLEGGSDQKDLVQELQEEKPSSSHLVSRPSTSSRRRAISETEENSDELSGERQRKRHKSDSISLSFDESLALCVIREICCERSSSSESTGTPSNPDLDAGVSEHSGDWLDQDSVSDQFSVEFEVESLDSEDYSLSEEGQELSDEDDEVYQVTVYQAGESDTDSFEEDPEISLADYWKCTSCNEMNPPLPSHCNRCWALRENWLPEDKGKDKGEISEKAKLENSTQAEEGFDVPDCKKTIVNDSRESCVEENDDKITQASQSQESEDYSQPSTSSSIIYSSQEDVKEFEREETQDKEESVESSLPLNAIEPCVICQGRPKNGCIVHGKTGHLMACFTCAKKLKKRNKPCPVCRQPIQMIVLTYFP
Test [5] deals with T2, E3 ubiquitin-protein ligase Mdm2. Kind of test: Binding affinity to 6xHis-taged MDM2 (unknown origin) expressed in Escherichia coli Gold (DE3) assessed as increase in signal-to-noise ratio at 0.1 mM by STD-NMR analysis.
Target sequence in this assay (Q00987 whole entry, looked up, the tested form may be a part): as the sequence (Q00987 whole entry, the tested form may be a part) above
The target is the same in test [6]. Kind of test: Competitive binding affinity to 6xHis-taged MDM2 (unknown origin) expressed in Escherichia coli Gold (DE3) assessed as reduction in STD signal intensity at 0.1 mM in presence of 0.1 mM nutlin-3a by STD-NMR analysis.
Target sequence in this assay (Q00987 whole entry, looked up, the tested form may be a part): as the sequence (Q00987 whole entry, the tested form may be a part) above
Test [7] shares this target. Briefly: Binding affinity to 6xHis-taged MDM2 (unknown origin) expressed in Escherichia coli Gold (DE3) assessed as change in signal intensity at 0.1 mM by WATERLOGSY-NMR analysis.
Target sequence in this assay (Q00987 whole entry, looked up, the tested form may be a part): as the sequence (Q00987 whole entry, the tested form may be a part) above
Test [8] shares this target. Kind of test: Binding affinity to 6xHis-taged MDM2 (unknown origin) expressed in Escherichia coli Gold (DE3) assessed as observation of positive signal at 0.1 mM by STD-NMR analysis.
Target sequence in this assay (Q00987 whole entry, looked up, the tested form may be a part): as the sequence (Q00987 whole entry, the tested form may be a part) above
For test [9] the target is unchanged. Kind of test: Competitive binding affinity to 6xHis-taged MDM2 (unknown origin) expressed in Escherichia coli Gold (DE3) assessed as reduction in signal intensity at 0.1 mM in presence of 0.1 mM nutlin-3a by WATERLOGSY-NMR analysis.
Target sequence in this assay (Q00987 whole entry, looked up, the tested form may be a part): as the sequence (Q00987 whole entry, the tested form may be a part) above
A further test has as its target T3, Estrogen receptor (Homo sapiens, UniProt P03372).
T3 sequence (P03372 whole entry): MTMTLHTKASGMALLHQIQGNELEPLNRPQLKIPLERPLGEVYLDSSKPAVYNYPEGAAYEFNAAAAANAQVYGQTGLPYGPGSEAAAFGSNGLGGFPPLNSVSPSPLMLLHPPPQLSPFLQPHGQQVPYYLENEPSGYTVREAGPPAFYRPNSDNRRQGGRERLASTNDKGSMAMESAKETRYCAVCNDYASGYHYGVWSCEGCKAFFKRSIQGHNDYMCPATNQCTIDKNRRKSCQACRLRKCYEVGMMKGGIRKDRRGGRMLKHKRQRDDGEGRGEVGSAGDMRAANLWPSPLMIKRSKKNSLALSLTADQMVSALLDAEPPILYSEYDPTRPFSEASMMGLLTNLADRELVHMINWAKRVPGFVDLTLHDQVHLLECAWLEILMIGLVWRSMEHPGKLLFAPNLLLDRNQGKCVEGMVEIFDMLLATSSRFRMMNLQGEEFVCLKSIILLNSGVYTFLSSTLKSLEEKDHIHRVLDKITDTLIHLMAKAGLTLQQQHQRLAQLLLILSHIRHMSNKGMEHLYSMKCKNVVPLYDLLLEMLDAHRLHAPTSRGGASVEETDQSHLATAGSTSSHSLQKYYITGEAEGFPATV
Briefly: Binding affinity to IPTG-induced human ER alpha LBD (301 to 553 residues) expressed in Escherichia coli BL21 (DE3) assessed as inhibition of ER alpha/NR2A protein-protein interaction at 25 degree by surface plasmon resonance assay. On the technique in general: Surface plasmon resonance follows binding to a sensor surface in real time, without labels.

A further test has as its target T4, Menin (Homo sapiens, UniProt O00255).
T4 sequence (O00255 whole entry): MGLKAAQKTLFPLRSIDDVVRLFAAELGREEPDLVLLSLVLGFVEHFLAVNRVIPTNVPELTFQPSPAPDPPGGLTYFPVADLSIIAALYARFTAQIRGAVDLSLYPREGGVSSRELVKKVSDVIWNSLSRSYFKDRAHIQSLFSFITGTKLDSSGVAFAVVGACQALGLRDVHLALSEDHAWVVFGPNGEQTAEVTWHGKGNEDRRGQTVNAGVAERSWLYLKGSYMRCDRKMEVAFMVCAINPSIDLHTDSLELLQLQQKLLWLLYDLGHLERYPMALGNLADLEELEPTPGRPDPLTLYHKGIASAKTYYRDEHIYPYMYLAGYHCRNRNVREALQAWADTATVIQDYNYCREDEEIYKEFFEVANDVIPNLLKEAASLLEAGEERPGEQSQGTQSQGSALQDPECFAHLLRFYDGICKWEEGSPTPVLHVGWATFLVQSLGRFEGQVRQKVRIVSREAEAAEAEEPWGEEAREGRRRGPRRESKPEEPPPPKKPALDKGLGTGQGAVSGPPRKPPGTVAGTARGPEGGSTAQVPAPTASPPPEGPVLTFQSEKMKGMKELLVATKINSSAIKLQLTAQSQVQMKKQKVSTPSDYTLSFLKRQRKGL
Briefly: Binding affinity to human Menin expressed in Escherichia coli BL21 (DE3) assessed as inhibition of Menin/MLL1 protein-protein at 20 degree C by isothermal titration calorimetry.

For test [10], the target named is T2, E3 ubiquitin-protein ligase Mdm2. Kind of test: Binding affinity to 6xHis-taged MDM2 (unknown origin) expressed in Escherichia coli Gold (DE3) assessed as inversion of signal intensity from negative to positive at 0.1 mM by WATERLOGSY-NMR analysis.
Target sequence in this assay (Q00987 whole entry, looked up, the tested form may be a part): as the sequence (Q00987 whole entry, the tested form may be a part) above
The target is the same in test [11]. Briefly: Competitive binding affinity to 6xHis-taged MDM2 (unknown origin) expressed in Escherichia coli Gold (DE3) assessed as observation of residual signal at 0.1 mM in presence of 0.1 mM nutlin-3a by STD-NMR analysis.
Test [12] has as its target Ras-related protein Rab-6A (Homo sapiens, UniProt P20340). Kind of test: Binding affinity to RAB6A (unknown origin) assessed as inhibition of RAB6A/[…] protein-protein interaction.

For eight molecules, Kd and Activity results are on record in ChEMBL document CHEMBL4613322, “HOPPI-NMR: Hot-Peptide-Based Screening Assay for Inhibitors of Protein-Protein Interactions by NMR” (ACS Med Chem Lett, 2020).

In general, Kd refers to the free concentration of one partner at which half of the binding sites on the other are occupied at equilibrium, for simple one-to-one binding.

The source made the active and inactive calls. No cut-off for these calls is given here. Peptide text beside a SMILES is read from it.

Sequence of Ras-related protein Rab-6A (P20340 whole entry): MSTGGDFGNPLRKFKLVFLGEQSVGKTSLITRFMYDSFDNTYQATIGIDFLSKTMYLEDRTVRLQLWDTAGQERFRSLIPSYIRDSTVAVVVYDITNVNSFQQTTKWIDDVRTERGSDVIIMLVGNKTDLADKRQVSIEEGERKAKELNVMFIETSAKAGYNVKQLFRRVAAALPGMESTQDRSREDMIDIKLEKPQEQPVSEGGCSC

Take `CSCC[C@H](NC(=O)[C@@H](NC(=O)[C@H](Cc1ccc(O)cc1)NC(=O)[C@H](C)NC(=O)[C@H](CC(N)=O)NC(=O)[C@H](CCCNC(=N)N)NC(=O)[C@H](Cc1ccc(O)cc1)NC(=O)[C@H](CC(C)C)NC(=O)[C@H](CCC(=O)O)NC(=O)[C@H](CCC(=O)O)NC(=O)[C@H](Cc1ccccc1)NC(=O)[C@H](CO)NC(=O)[C@H](CC(C)C)NC(=O)CNC(=O)[C@H](CO)NC(=O)[C@@H](N)CC(N)=O)[C@@H](C)O)C(=O)N[C@H](C(=O)N[C@@H](CC(C)C)C(=O)N[C@@H](Cc1cnc[nH]1)C(=O)N[C@@H](CCCCN)C(=O)O)C(C)C` (H-NSGLSFEELYRNAYTMVLHK-OH): in test [1], the Kd was 497 nM.
For the molecule `CC[C@H](C)[C@H](NC(=O)[C@H](CO)NC(=O)[C@H](CCC(=O)O)NC(=O)[C@@H]1CCCN1C(=O)[C@H](CC(N)=O)NC(=O)[C@@H](N)CCC(=O)O)C(=O)N[C@@H](CC(C)C)C(=O)N[C@@H](CC(=O)O)C(=O)N[C@@H](CCC(=O)O)C(=O)N[C@@H](Cc1cnc[nH]1)C(=O)N[C@H](C(=O)N[C@@H](CCC(N)=O)C(=O)N[C@@H](CCCNC(=N)N)C(=O)N[C@H](C(=O)N[C@@H](CCSC)C(=O)O)C(C)C)C(C)C` (H-ENPESILDEHVQRVM-OH), the Kd in [2] is 5000 nM.
Take `CC[C@H](C)[C@H](NC(=O)[C@H](Cc1cnc[nH]1)NC(=O)[C@H](C)NC(=O)[C@H](CCC(N)=O)NC(=O)[C@@H](NC(=O)[C@H](CCCNC(=N)N)NC(=O)[C@H](CC(C)C)NC(=O)[C@H](CC(C)C)NC(=O)[C@H](CO)NC(=O)[C@@H]1CCCN1C(=O)[C@@H](NC(=O)[C@@H](N)CC(N)=O)[C@@H](C)CC)C(C)C)C(=O)N[C@@H](CCCNC(=N)N)C(=O)N[C@@H](CCCCN)C(=O)N[C@@H](CCCCN)C(=O)N[C@@H](CCSC)C(=O)N[C@H](C(=O)N[C@@H](C)C(=O)N[C@@H](CCC(N)=O)C(=O)O)C(C)C` (H-NIPSLLRVQAHIRKKMVAQ-OH): in [3], the Kd was 85 nM.
On to `CC(C)C[C@H](NC(=O)[C@H](CC(C)C)NC(=O)[C@H](CCCCN)NC(=O)[C@H](Cc1c[nH]c2ccccc12)NC(=O)[C@H](CC(C)C)NC(=O)[C@H](CC(=O)O)NC(=O)[C@H](CO)NC(=O)[C@@H](N)Cc1ccccc1)C(=O)O`, for which, in test [4], the Kd turned out to be 800 nM. Also, the result in [5], in [6], in test [7], in [8] and in test [9] was Active.
Consider `CC[C@H](C)[C@H](NC(=O)[C@H](CCCCN)NC(=O)[C@@H](N)Cc1cnc[nH]1)C(=O)N[C@@H](CC(C)C)C(=O)N[C@@H](Cc1cnc[nH]1)C(=O)N[C@@H](CCCNC(=N)N)C(=O)N[C@@H](CC(C)C)C(=O)N[C@@H](CC(C)C)C(=O)N[C@@H](CCC(N)=O)C(=O)N[C@@H](CC(=O)O)C(=O)N[C@@H](CO)C(=O)O` (H-HKILHRLLQDS-OH), for which the Kd on Estrogen receptor stood at 2500 nM.
In the case of `C[C@H](NC(=O)[C@@H]1CCCN1C(=O)[C@H](Cc1ccccc1)NC(=O)[C@H](CCCNC(=N)N)NC(=O)[C@H](Cc1c[nH]c2ccccc12)NC(=O)[C@@H](N)CCCNC(=N)N)C(=O)N[C@@H](CCCNC(=N)N)C(=O)N1CCC[C@H]1C(=O)NCC(=O)N[C@H](C(=O)N[C@H](C(=O)NCC(=O)NCC(=O)NCC(=O)NCC(=O)NCC(=O)NCC(=O)NCC(=O)N[C@@H](CCCNC(=N)N)C(=O)N[C@@H](CCCNC(=N)N)C(=O)O)[C@@H](C)O)[C@@H](C)O` (H-RWRFPARPGTTGGGGGGGRR-OH), the Kd at Menin came to 82 nM.
For the molecule `CC(C)C[C@H](NC(=O)[C@H](CCCCN)NC(=O)[C@H](Cc1c[nH]c2ccccc12)NC(=O)[C@H](CC(C)C)NC(=O)[C@H](CC(=O)O)NC(=O)[C@H](CO)NC(=O)[C@@H](N)Cc1ccccc1)C(=O)O` (H-FSDLWKL-OH), the outcome in test [10], in test [5], in [11], in test [6], in test [8] and in test [9] was Active. Moreover, the Kd in [4] was determined as 150000 nM.
Regarding `CC(C)C[C@H](NC(=O)[C@H](CC(C)C)NC(=O)[C@H](Cc1cnc[nH]1)NC(=O)[C@H](Cc1ccc(O)cc1)NC(=O)[C@H](CC(C)C)NC(=O)[C@H](Cc1ccccc1)NC(=O)[C@H](CCC(N)=O)NC(=O)[C@H](CCC(=O)O)NC(=O)[C@H](CCCCN)NC(=O)[C@H](CCC(=O)O)NC(=O)[C@H](CC(=O)O)NC(=O)[C@@H](N)CC(=O)O)C(=O)N[C@@H](CO)C(=O)N[C@@H](Cc1ccccc1)C(=O)N[C@@H](CC(N)=O)C(=O)N[C@@H](C)C(=O)N[C@H](C(=O)O)C(C)C` (H-DDEKEQFLYHLLSFNAV-OH), the Kd in [12] worked out at 20000 nM.
